# From patent publication US20100273700A1, “USE OF A PEPTIDE AS A THERAPEUTIC AGENT” (priority 2007, published 2010)
# Columns and labels:
# [1] = system: CEM-SS cells; assay: Cytotoxicity in the HIV-1 assay (MTS cell viability); conditions: CEM-SS cells plus peptide only; peptide 10 micrograms per ml; MTS
# [2] = system: Primary Human endothelial cells (HUVEC); assay: Endothelial cell migration assay; format: cell-based; conditions: 10 micrograms per ml, 22 hours
# [3] = system: A549 cells; assay: Apoptosis induction assay (Annexin-5); format: cell-based, Human; conditions: 24 hours exposure
# Protocol: Human A549 cells (carcinomic human alveolar basal epithelial cells) were utilized in the experiments employing the Annexin-5 apoptosis assay. […] Test peptide-micrograms per ml—were exposed for 24 hours to the A549 cells before they were analyzed for signs of apoptosis.
# [4] = Cytotoxicity testing in MRC-5 cells (CellTiter 96); conditions: human, MRC-5 cells (embryonal lung fibroblasts)
# [5] = system: hepatitis B virus (HBV) ayw strain in HepG2-2.2.15 cells; assay: HBV experimental assay system (secreted HBV DNA, TaqMan PCR); format: cell-based; conditions: test peptide 10 micrograms per ml; six days; HBV DNA in supernatant
# [6] = system: HUVEC; assay: Endothelial tube formation assay; format: cell-based, Human; conditions: 10 micrograms per ml, 20 hours
# From the text: Positive control was vehicle only.
# [7] = system: Interleukin-2 (IL-2); assay: Th1/Th2 cytokine profiling assay: IL-2; format: cell-based, Balb/c mice; conditions: Ovalbumin-restimulated spleen cells; 10 micrograms per ml; 72 hours
# From the text: (§1) The Balb/c mice (originated in 1923, it is a popular strain and is used in many different research disciplines. Also classified as an inbred from the production of 20 or more successive brother-sister matings, the Balb/c mouse is albino and small in size) were immunized on Days 1, 15, and 29 with Ovalbumin (Ovalbumin is the main protein found in egg white, commonly used to stimulate an immunological reaction in test animals) in PBS (5 micrograms/injection). On day 50, spleens of the mice were harvested (3 weeks after last boost with Ovalbumin). Cells were cultured (2×10^5/well in triplicate) and incubated with culture medium or test peptide—10 micrograms per ml—for 30 min. Thereafter, additional Ovalbumin was added to the cells at 10 micrograms/ml for in vitro restimulation of the cells. 72 hours later, cell supernatants were harvested and assayed using the Becton Dickinson Mouse Th1/Th2 Cytokine CBA Kit.
# [8] = system: RAW 264.7 cells; assay: Phagocytosis assay (Fluorescein-labeled Escherichia coli); format: cell-based, Mouse; conditions: 10 micrograms per ml, flow cytometry
# [9] = system: A549 cells; assay: Apoptosis prevention assay (C2 ceramide, Annexin-5); format: cell-based, Human; conditions: A549 cells pretreated 30 min, 10 micrograms per ml
# [10] = system: Interferon-γ (IFN-γ); assay: Th1/Th2 cytokine profiling assay: IFN-γ; format: cell-based, Balb/c mice; conditions: Ovalbumin-restimulated spleen cells; 10 micrograms per ml; 72 hours
# From the text: as §1
# [11] = Cytotoxicity in the HBV assay (dye uptake cell viability); format: cell-based; conditions: human; HepG2-2.2.15 cells; test peptide 10 micrograms per ml; dye uptake assay (% cell control)
# [12] = system: Interleukin-5 (IL-5); assay: Th1/Th2 cytokine profiling assay: IL-5; format: cell-based, Balb/c mice; conditions: Ovalbumin-restimulated spleen cells; 10 micrograms per ml; 72 hours
# From the text: as §1
# [13] = system: Human Peripheral Blood Mononuclear Cells (PBMC); assay: T cell proliferation assay (PHA, 3H-thymidine); format: cell-based; conditions: 10 micrograms per ml, 3H-thymidine incorporation
# [14] = system: HCMV strain AD169; assay: HCMV plaque reduction assay; format: cell-based; conditions: MRC-5 cells; peptide 10 micrograms per ml; 7-10 days
# From the text: Ganciclovir was used as positive control.
# [15] = Cytotoxicity in the HIV-1 assay (MTS cell viability); conditions: human, CEM-SS cells (uninfected, cells plus peptide only)
# [16] = system: A549 cells; assay: Propidium iodide cell cycle assay; format: cell-based, Human; conditions: 10 micrograms per ml, 24 hours, FACS
# [17] = system: Streptococcus pneumoniae; assay: Streptococcus pneumoniae assay; format: cell-based; conditions: peptide 10 micrograms per ml, read visually
# From the text: Results from Streptococcus pneumoniae assay:
# [18] = system: TNF alpha; assay: TNF alpha production assay (LPS-stimulated macrophages, ELISA); format: cell-based, human; conditions: 10 micrograms per ml, lipopolysaccharide 200 ng/ml, overnight
# From the text: Not stimulated macrophages served as negative background control.
# [19] = system: Pseudomonas aeruginosa; assay: Pseudomonas aeruginosa assay; format: cell-based; conditions: peptide 10 micrograms per ml, read visually
# [20] = system: Tumor Necrosis Factor-α (TNF-α); assay: Th1/Th2 cytokine profiling assay: TNF-α; format: cell-based, Balb/c mice; conditions: Ovalbumin-restimulated spleen cells; 10 micrograms per ml; 72 hours
# From the text: as §1
# [21] = system: MRSA; assay: Methicillin Resistant Staphylococcus Aureus (MRSA) assay; format: cell-based; conditions: peptide 10 micrograms per ml, read visually
# [22] = system: Human Peripheral Blood Mononuclear Cells (PBMC); assay: B cell proliferation assay (SAC plus Interleukin-2, 3H-thymidine); format: cell-based; conditions: 10 micrograms per ml, 3H-thymidine incorporation
# [23] = system: Interleukin-4 (IL-4); assay: Th1/Th2 cytokine profiling assay: IL-4; format: cell-based, Balb/c mice; conditions: Ovalbumin-restimulated spleen cells; 10 micrograms per ml; 72 hours
# From the text: as §1
compound,measurement,setting,value
"Cc1cn([C@H]2C[C@H](N=[N+]=[N-])[C@@H](CO)O2)c(=O)[nH]c1=O [AZT, reference compound]",% Cell viability,[1],97%
CC(C)C[C@H](NC(=O)[C@H](Cc1ccccc1)NC(=O)CNC(=O)CNC(=O)[C@@H](N)Cc1ccc(O)cc1)C(=O)N[C@@H](CCCNC(=N)N)C(=O)N[C@@H](CCCNC(=N)N)C(=O)N[C@@H](CCC(N)=O)C(=O)N[C@@H](Cc1ccccc1)C(=O)N[C@@H](CCCCN)C(=O)N[C@H](C(=O)N[C@H](C(=O)N[C@H](C(=O)O)[C@@H](C)O)C(C)C)C(C)C [Dynorphin B],% inhibition of migration,[2],57%
same,% of induction,[3],1.2%
same,viability at 144 h,[4],100%
same,% inhibition of HBV replication in HEP G2 cells,[5],45.7%
same,% inhibition of tube formation,[6],11%
same,IL-2 spleen cells (% of control),[7],134.2 % of control
same,% of control phagocytosis,[8],102.9%
same,% prevention of ceramide induced apoptosis,[9],0.0%
same,IFNγ spleen cells; TH1 response (% of control),[10],73.9 % of control
same,"viability at 144 h, 10 micrograms per ml",[11],89.7%
same,IL-5 spleen cells; TH2 response (% of control),[12],82.0 % of control
same,% of PHA induced control,[13],107.1%
same,% plaque reduction,[14],1.0%
same,viability at 10 micrograms per ml,[15],37%
same,% Cell viability,[1],toxic
same,Cell cycle analysis G0/G1,[16],59.5
same,Cell cycle analysis G2/M,[16],8.3
same,Cell cycle analysis S,[16],32.2
same,% inhibition,[17],100.0%
same,% of LPS induction,[18],97.8%
same,% inhibition,[19],0.0%
same,TNF-a spleen cells; TH1 response (% of control),[20],105.2 % of control
same,% inhibition,[21],0.0%
same,% of SAC/IL2 induced control,[22],104.8%
same,IL-4 spleen cells; TH2 response (% of control),[23],208.2 % of control
